Experimental data published in patent US20230114728A1 (Venatorx Pharmaceuticals, Inc., priority 2019, published 2023).
Values after ≈ are worked out from the molar mass of the structure shown. Read-outs that look alike come from different tables or passages of the source.

Legend:
Format in all cases: cell-based
[1] = test system: N. gonorrhoeae ATCC 49226; test: Liquid broth MIC in Fastidious broth; conditions: Neisseria gonorrhoeae, ATCC49226; N. gonorrhoeae strain ATCC 49226; Fastidious broth; read-out: Minimum Inhibitory Concentration, N. gonorrhoeae ATCC 49226
Description: (§1) Example V: In Vitro Antibacterial Assays for N. gonorrhoeae Strains
(§2) Additional antibacterial testing of the series was performed in 8 reference strains of N. gonorrhoeae (ATCC 49226, FA1090, WHO G, WHO L, WHO K, H041, WHO Z, and WHO Q). ATCC 49226, FA1090, WHO G, and WHO L produce wild type or wild-type like PBP2. WHO K, H041, WHO Z, and WHO Q produce mosaic PBP2. Liquid broth-based assays were used for antibacterial testing of PBP inhibitors in Neisseria gonorrhoeae. Briefly, cryo-preserved bacterial cultures of clinical strains were streaked for isolation on Chocolate Agar (72 g/L (2×) GC Agar Base (BD #228950) and 2% (2×) Hemoglobin was autoclaved at 121° C. for 20 minutes to sterilize. Once cooled to ˜50° C. the 2× GC Agar Base and 2× Hemoglobin solutions are combined and 1% IsoVitaleX Enrichment (BD #211876) was added to the solution). Strains were incubated at 36° C. and 5% CO2 to allow growth of colonies, 24 hours before inoculum preparation. 2-fold serial dilutions of test compounds were conducted in a 96 well plate with a final volume of 75 μL per well at 2-fold the final desired concentration in Fastidious broth (Remel #R07664). For preparation of assay inoculum, a direct suspension was prepared by aseptically swabbing all colonies from agar plates into culture tubes containing 2 mL of fresh sterile saline. After the dilution plates were set up, direct suspensions were then diluted in a cuvette containing sterile saline and the optical density was measured at 600 nm. Inocula were diluted such that 75 μL of this culture in Fastidious broth results in a starting bacterial concentration of 5×10^5 CFU/mL when added to the dilution plates. The plates were incubated for ˜24 hours at 36° C. and 5% CO2. The MIC was read visually as the lowest concentration well with <10% bacterial growth compared to wells of full growth.

N. gonorrhoeae FA1090 = test: Liquid broth MIC in Fastidious broth; conditions: Neisseria gonorrhoeae; N. gonorrhoeae strain FA1090; Fastidious broth; read-out: Minimum Inhibitory Concentration, N. gonorrhoeae FA1090
Description: as §1, §2

N. gonorrhoeae H041 = test: Liquid broth MIC in Fastidious broth; conditions: Neisseria gonorrhoeae, H041, read-out: Minimum Inhibitory Concentration, N. gonorrhoeae H041
Description: as §1, §2

N. gonorrhoeae WHO G = test: Liquid broth MIC in Fastidious broth; conditions: Neisseria gonorrhoeae, read-out: Minimum Inhibitory Concentration, N. gonorrhoeae WHO G
Description: as §1, §2

N. gonorrhoeae WHO K = test: Liquid broth MIC in Fastidious broth; conditions: Neisseria gonorrhoeae, read-out: Minimum Inhibitory Concentration, N. gonorrhoeae WHO K
Description: as §1, §2

N. gonorrhoeae WHO L = test: Liquid broth MIC in Fastidious broth; conditions: Neisseria gonorrhoeae, read-out: Minimum Inhibitory Concentration, N. gonorrhoeae WHO L
Description: as §1, §2

E. coli AG100A = test: Broth microdilution MIC in CAMHB; conditions: Escherichia coli, read-out: Minimum Inhibitory Concentration, E. coli AG100A
In short: (§3)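 Per CLSI broth microdilution, colonies were grown 3-5 h at 37° C in cation-adjusted Mueller Hinton broth, then diluted to a starting inoculum of 2-8×10^5 CFU/mL against 2-fold serial compound dilutions. Plates were incubated 16-20 h at 37° C, and MIC was read visually as the lowest concentration with no growth.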

E. coli AG100 = test: Broth microdilution MIC in CAMHB; conditions: Escherichia coli; E. coli AG100 (wild-type parent); MHB; read-out: Minimum Inhibitory Concentration, E. coli AG100
In short: as §3

E. coli ATCC 25922 = test: Broth microdilution MIC in CAMHB; conditions: Escherichia coli, ATCC25922; E. coli ATCC 25922; MHB; read-out: Minimum Inhibitory Concentration, E. coli 25922
In short: as §3

E. coli D22 = test: Broth microdilution MIC in CAMHB; conditions: Escherichia coli; E. coli D22 (hyper-permeable); MHB; read-out: Minimum Inhibitory Concentration, E. coli D22
In short: as §3

[2] = N. gonorrhoeae strain WHO G, Fastidious broth
[3] = N. gonorrhoeae strain WHO L, Fastidious broth

SMILES	MIC [1] [µg/mL]	MIC (N. gonorrhoeae FA1090) [µg/mL]	MIC (N. gonorrhoeae H041) [µg/mL]	MIC (N. gonorrhoeae WHO G; [2]) [µg/mL]	MIC (N. gonorrhoeae WHO K) [µg/mL]	MIC (N. gonorrhoeae WHO L; [3]) [µg/mL]	MIC (E. coli AG100A) [µg/mL]	MIC (E. coli AG100) [µg/mL]	MIC (E. coli ATCC 25922) [µg/mL]	MIC (E. coli D22) [µg/mL]	MIC (N. gonorrhoeae WHO G) [µg/mL]	MIC (N. gonorrhoeae WHO L) [µg/mL]
O=C(NC(C(=O)N[C@H]1Cc2ccc(F)c(C(=O)O)c2OB1O)c1ncc(O)cc1F)c1ccc(O)c(O)c1Cl (stereo partly drawn) [Example 8, (3R)-3-(2-(2-chloro-3,4-dihydroxybenzamido)-2-(3-fluoro-5-hydroxypyridin-2-yl)acetamido)-7-fluoro-2-hydroxy-3,4-dihydro-2H-benzo[e][1,2]oxaborinine-8-carboxylic acid]	> 64	4 to 8 (≈ 7.1 to 14.2 µM)	> 64	16 to 32 (≈ 28.4 to 56.8 µM)	> 64	> 64						
O=C(Nc1ccc(O)c(O)c1Cl)NC(C(=O)N[C@H]1Cc2ccc(F)c(C(=O)O)c2OB1O)c1ncc(O)cc1F (stereo partly drawn) [Example 9, (3R)-3-(2-(3-(2-chloro-3,4-dihydroxyphenyl)ureido)-2-(3-fluoro-5-hydroxypyridin-2-yl)acetamido)-7-fluoro-2-hydroxy-3,4-dihydro-2H-benzo[e][1,2]oxaborinine-8-carboxylic acid]	> 64	16 to 32 (≈ 27.6 to 55.3 µM)	> 64	> 64	> 64	> 64						
O=C(NC(C(=O)N[C@H]1Cc2ccc(F)c(C(=O)O)c2OB1O)c1ncc(O)cc1F)c1c(F)cc(O)c(O)c1Cl (stereo partly drawn) [Example 10, (3R)-3-(2-(2-chloro-6-fluoro-3,4-dihydroxybenzamido)-2-(3-fluoro-5-hydroxypyridin-2-yl)acetamido)-7-fluoro-2-hydroxy-3,4-dihydro-2H-benzo[e][1,2]oxaborinine-8-carboxylic acid]	> 64	16 to 32 (≈ 27.5 to 55 µM)	> 64	> 64	> 64	> 64						
O=C(O)c1ccc(C(NC(=O)N2CCN(CCNC(=O)c3ccc(O)c(O)c3Cl)C(=O)C2=O)C(=O)N[C@H]2Cc3ccc(F)c(C(=O)O)c3OB2O)cc1F (stereo partly drawn) [Example 11, (3R)-3-(2-(4-carboxy-3-fluorophenyl)-2-(4-(2-(2-chloro-3,4-dihydroxybenzamido)ethyl)-2,3-dioxopiperazine-1-carboxamido)acetamido)-7-fluoro-2-hydroxy-3,4-dihydro-2H-benzo[e][1,2]oxaborinine-8-carboxylic acid]	16 to 32 (≈ 20.7 to 41.4 µM)	1 to 2 (≈ 1.29 to 2.58 µM)	> 64	4 to 8 (≈ 5.17 to 10.3 µM)	> 64	> 64	2 to 4 (≈ 2.58 to 5.17 µM)	32 to 64 (≈ 41.4 to 82.7 µM)	32 to 64 (≈ 41.4 to 82.7 µM)	8 to 16 (≈ 10.3 to 20.7 µM)		
CS(=O)(=O)N1CCN(C(=O)NC(C(=O)N[C@H]2Cc3ccc(F)c(C(=O)O)c3OB2O)c2ccc(O)c(O)c2Cl)C1=O (stereo partly drawn) [Example 23, (3R)-3-(2-(2-chloro-3,4-dihydroxyphenyl)-2-(3-(methylsulfonyl)-2-oxoimidazolidine-1-carboxamido)acetamido)-7-fluoro-2-hydroxy-3,4-dihydro-2H-benzo[e][1,2]oxaborinine-8-carboxylic acid]	> 64	4 to 8 (≈ 6.51 to 13 µM)	> 64	16 to 32 (≈ 26 to 52.1 µM)	> 64	> 64						
NC(C(=O)N[C@H]1Cc2ccc(F)c(C(=O)O)c2OB1O)c1c(F)cc(O)c(O)c1Cl (stereo partly drawn) [Example 25, (3R)-3-(2-amino-2-(2-chloro-6-fluoro-3,4-dihydroxyphenyl)acetamido)-7-fluoro-2-hydroxy-3,4-dihydro-2H-benzo[e][1,2]oxaborinine-8-carboxylic acid]	> 64	> 64	> 64	> 64	> 64	> 64						
CCN1CCN(C(=O)NC(C(=O)N[C@H]2Cc3ccc(F)c(C(=O)O)c3OB2O)c2c(F)cc(O)c(O)c2F)C(=O)C1=O (stereo partly drawn) [Example 36, (3R)-3-(2-(2,6-difluoro-3,4-dihydroxyphenyl)-2-(4-ethyl-2,3-dioxopiperazine-1-carboxamido)acetamido)-7-fluoro-2-hydroxy-3,4-dihydro-2H-benzo[e][1,2]oxaborinine-8-carboxylic acid]	16 to 32 (≈ 26.9 to 53.8 µM)	4 to 8 (≈ 6.73 to 13.5 µM)	16 to 32 (≈ 26.9 to 53.8 µM)	16 to 32 (≈ 26.9 to 53.8 µM)	16 to 32 (≈ 26.9 to 53.8 µM)	> 64						
O=C(O)c1c(F)ccc2c1OB(O)[C@@H](NC(=O)C(NC(=O)N1CCN(CCF)C(=O)C1=O)c1c(F)cc(O)c(O)c1F)C2 (stereo partly drawn) [Example 37, (3R)-3-(2-(2,6-difluoro-3,4-dihydroxyphenyl)-2-(4-(2-fluoroethyl)-2,3-dioxopiperazine-1-carboxamido)acetamido)-7-fluoro-2-hydroxy-3,4-dihydro-2H-benzo[e][1,2]oxaborinine-8-carboxylic acid]	16 to 32 (≈ 26.1 to 52.3 µM)	4 to 8 (≈ 6.53 to 13.1 µM)	16 to 32 (≈ 26.1 to 52.3 µM)	16 to 32 (≈ 26.1 to 52.3 µM)	16 to 32 (≈ 26.1 to 52.3 µM)	> 64						
O=C(O)c1c(F)ccc2c1OB(O)[C@@H](NC(=O)C(NC(=O)N1CCN(CCBr)C(=O)C1=O)c1c(F)cc(O)c(O)c1F)C2 (stereo partly drawn) [Example 38, (3R)-3-(2-(4-(2-bromoethyl)-2,3-dioxopiperazine-1-carboxamido)-2-(2,6-difluoro-3,4-dihydroxyphenyl)acetamido)-7-fluoro-2-hydroxy-3,4-dihydro-2H-benzo[e][1,2]oxaborinine-8-carboxylic acid]	16 to 32 (≈ 23.8 to 47.5 µM)	4 to 8 (≈ 5.94 to 11.9 µM)	> 64		> 64						16 to 32 (≈ 23.8 to 47.5 µM)	> 64
CCN1CCN(C(=O)NC(C(=O)N[C@H]2Cc3ccc(F)c(C(=O)O)c3OB2O)c2cc(F)c(O)c(O)c2Cl)C(=O)C1=O (stereo partly drawn) [Example 42, (3R)-3-(2-(2-chloro-5-fluoro-3,4-dihydroxyphenyl)-2-(4-ethyl-2,3-dioxopiperazine-1-carboxamido)acetamido)-7-fluoro-2-hydroxy-3,4-dihydro-2H-benzo[e][1,2]oxaborinine-8-carboxylic acid]	16 to 32 (≈ 26.2 to 52.4 µM)	4 to 8 (≈ 6.55 to 13.1 µM)	16 to 32 (≈ 26.2 to 52.4 µM)	16 to 32 (≈ 26.2 to 52.4 µM)	16 to 32 (≈ 26.2 to 52.4 µM)	> 64						
O=C(O)c1ccc(C(NC(=O)c2c(F)cc(O)c(O)c2Cl)C(=O)N[C@H]2Cc3ccc(F)c(C(=O)O)c3OB2O)cc1F (stereo partly drawn) [Example 71, (3R)-3-(2-(4-carboxy-3-fluorophenyl)-2-(2-chloro-6-fluoro-3,4-dihydroxybenzamido)acetamido)-7-fluoro-2-hydroxy-3,4-dihydro-2H-benzo[e][1,2]oxaborinine-8-carboxylic acid]	> 64	> 64	> 64	> 64	> 64	> 64						
CC(C)(C)[C@@H](NC(=O)N1CCN(CCNC(=O)c2c(F)cc(O)c(O)c2Cl)C(=O)C1=O)C(=O)N[C@H]1Cc2ccc(F)c(C(=O)O)c2OB1O [Example 80, (R)-3-((R)-2-(4-(2-(2-chloro-6-fluoro-3,4-dihydroxybenzamido)ethyl)-2,3-dioxopiperazine-1-carboxamido)-3,3-dimethylbutanamido)-7-fluoro-2-hydroxy-3,4-dihydro-2H-benzo[e][1,2]oxaborinine-8-carboxylic acid]	16 to 32 (≈ 22.5 to 45.1 µM)	4 to 8 (≈ 5.63 to 11.3 µM)	> 64	16 to 32 (≈ 22.5 to 45.1 µM)	> 64	> 64						
